From US10633353B2, “Polymerizable compound, composition, polymer, optically anisotropic body, liquid crystal display element, and organic EL display” (DIC Corporation, priority 2014, dated 2020)

Experiments:
[1] = Optical stability of the optical film (xenon-lamp irradiation); type: physicochemical; conditions: summary in words
Method: The coating liquid was applied to a glass substrate by spin coating, the glass substrate including a rubbed polyimide layer deposited thereon. The glass substrate was then placed on a hot plate, dried at 80° C. for 1 minute, and further dried at 140° C. for another 1 minute. Subsequently, irradiation with ultraviolet radiation at 1000 mJ/cm and 140° C. was performed.
The optical film was irradiated with light at 50 mW/cm^2, 25° C., and 100 J using a xenon-lamp irradiation testing machine (SUNTEST XLS, produced by Atlas). The optical stability of the optical film was evaluated on a scale of A to E below.
A: No change in the film was visually confirmed. An inspection of the optical film with a polarized light microscope also confirmed no defects.
B: Although no change in the film was visually confirmed, an inspection of the optical film with a polarized light microscope confirmed slight orientation defects.
C: Slight yellowing of the film was visually confirmed.
D: Yellowing of the film was visually confirmed. In addition, the optical film was partly detached from the glass substrate.
E: Yellowing of the entire film was visually confirmed. In addition, the optical film was detached from the glass substrate.

[2] = Preservation stability of the coating liquid; type: physicochemical
Summary of the method: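 Coating liquid stored 2 months at 0° C shielded from light, then graded A–E. Grades rest on visual appearance, change in composition by GPC, and weight ratio of insoluble components to total solids.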

[3] = coating liquid stored for 2 months shielded from light at 0° C., appearance and GPC

Row | Structure (SMILES) | optical stability [1] | Preservation stability [2, 3] | Preservation stability ([2]; summary in words)
1 | C=CC(=O)OCCCCCCOc1ccc(OC(=O)C2CCC(C(=O)OCCc3ccc(OC(=O)C4CCC(C(=O)Oc5ccc(OCCCCCCOC(=O)C=C)cc5)CC4)c(/C=N/N(CCCCCC)c4nc5ccccc5s4)c3)CC2)cc1 (centres unmarked) [1-cmn-82] | high | A (No visual change in the appearance of the coating liquid was confirmed. A GPC analysis of the coating liquid confirmed that the change in the composition of the coating liquid was 1% or less.) | high
2 | C=CC(=O)OCCCCOC(=O)C1CCC(C(=O)OC2CCC(C(=O)Oc3ccc(OC(=O)C4CCC(OC(=O)C5CCC(C(=O)OCCCCOC(=O)C=C)CC5)CC4)c(/C=N/N(CC)c4nc5ccccc5s4)c3)CC2)CC1 (centres unmarked) [1-f-102] |  | A (No visual change in the appearance of the coating liquid was confirmed. A GPC analysis of the coating liquid confirmed that the change in the composition of the coating liquid was 1% or less.) | 
3 | C=CC(=O)OCCCCOC(=O)C1CCC(C(=O)OC2CCC(C(=O)Oc3ccc(OC(=O)C4CCC(OC(=O)C5CCC(C(=O)OCCCCOC(=O)C=C)CC5)CC4)c(/C=N/N(C)c4nc5ccccc5s4)c3)CC2)CC1 (centres unmarked) [1-f-103] |  | A (No visual change in the appearance of the coating liquid was confirmed. A GPC analysis of the coating liquid confirmed that the change in the composition of the coating liquid was 1% or less.) | 
4 | C=CC(=O)Oc1ccc(C(=O)Oc2ccc(OC(=O)c3ccc(OC(=O)C=C)cc3)c(/C=N/Nc3nc4ccccc4s3)c2)cc1 [1-g-35] |  | B (No visual change in the appearance of the coating liquid was confirmed. A GPC analysis of the coating liquid confirmed that the change in the composition of the coating liquid was 2% or less.) | 
5 | C=CC(=O)OCCCCCCOc1ccc(C(=O)Oc2ccc(-c3ccc(OC(=O)c4ccc(OCCCCCCOC(=O)C=C)cc4)c(/C=N/Nc4nc5ccccc5s4)c3)cc2)cc1 [1-hk-84] |  | A (No visual change in the appearance of the coating liquid was confirmed. A GPC analysis of the coating liquid confirmed that the change in the composition of the coating liquid was 1% or less.) | high
6 | C=CC(=O)OCCCCCCOc1ccc(C(=O)Oc2ccc(-c3ccc(OC(=O)c4ccc(OCCCCCCOC(=O)C=C)cc4)cc3/C=N/Nc3nc4ccccc4s3)cc2)cc1 [1-hk-85] |  | A (No visual change in the appearance of the coating liquid was confirmed. A GPC analysis of the coating liquid confirmed that the change in the composition of the coating liquid was 1% or less.) | high
7 | C=CC(=O)OCCCCCCOc1ccc(C(=O)Oc2ccc(-c3ccc(OC(=O)c4ccc(OCCCCCCOC(=O)C=C)cc4)cc3C=NN=C3c4ccccc4-c4ccccc43)cc2)cc1 [1-hk-86] |  | A (No visual change in the appearance of the coating liquid was confirmed. A GPC analysis of the coating liquid confirmed that the change in the composition of the coating liquid was 1% or less.) | high
8 | C=CC(=O)OCCCOC(=O)/C=C/c1ccc(C(=O)Oc2ccc(OC(=O)c3ccc(/C=C/C(=O)OCCCOC(=O)C=C)cc3OC)c(/C=N/Nc3nc4ccccc4s3)c2)c(OC)c1 [1-j-57] |  | B (No visual change in the appearance of the coating liquid was confirmed. A GPC analysis of the coating liquid confirmed that the change in the composition of the coating liquid was 2% or less.) | 
9 | C=CC(=O)OCCCOC(=O)/C=C/c1ccc(C(=O)Oc2ccc(OC(=O)c3ccc(/C=C/C(=O)OCCCOC(=O)C=C)cc3)c(/C=N/Nc3nc4ccccc4s3)c2)cc1 [1-j-61] |  | B (No visual change in the appearance of the coating liquid was confirmed. A GPC analysis of the coating liquid confirmed that the change in the composition of the coating liquid was 2% or less.) | 
10 | C=CC(=O)OCCCCCCOC(=O)/C=C/c1ccc(C(=O)Oc2ccc(OC(=O)c3ccc(/C=C/C(=O)OCCCCCCOC(=O)C=C)cc3)c(/C=N/Nc3nc4ccccc4s3)c2)cc1 [1-j-62] |  | B (No visual change in the appearance of the coating liquid was confirmed. A GPC analysis of the coating liquid confirmed that the change in the composition of the coating liquid was 2% or less.) | 
11 | C=CC(=O)OCCCCOC(=O)/C=C/c1ccc(C(=O)Oc2ccc(OC(=O)c3ccc(/C=C/C(=O)OCCCCOC(=O)C=C)cc3)c(/C=N/N(c3ccccc3)c3ccccc3)c2)cc1 [1-j-64] |  | B (No visual change in the appearance of the coating liquid was confirmed. A GPC analysis of the coating liquid confirmed that the change in the composition of the coating liquid was 2% or less.) | 
12 | C=CC(=O)OCCCCOC(=O)/C=C/c1ccc(C(=O)Oc2ccc(OC(=O)c3ccc(/C=C/C(=O)OCCCCOC(=O)C=C)cc3)c(/C=N/Nc3nc4ccc5ccccc5c4s3)c2)cc1 [1-j-65] |  | B (No visual change in the appearance of the coating liquid was confirmed. A GPC analysis of the coating liquid confirmed that the change in the composition of the coating liquid was 2% or less.) | 
13 | C=CC(=O)OCCCCCCOc1ccc(C(=O)Oc2ccc(OC(=O)c3ccc(OCCCCCCOC(=O)C=C)cc3)c3sc(-c4ccc([N+](=O)[O-])cc4)nc23)cc1 [r-1, reference compound] |  | D (A visual change in the appearance of the coating liquid was confirmed; insoluble components were confirmed. The ratio of the weight of the insoluble components to the total solid content was 5% or less.) | 
14 | C=CC(=O)OCCCCCCOc1ccc(OC(=O)C2CCC(C(=O)Oc3ccc(OC(=O)C4CCC(C(=O)Oc5ccc(OCCCCCCOC(=O)C=C)cc5)CC4)c4c3SC(=C(C#N)C#N)S4)CC2)cc1 (centres unmarked) [r-2, reference compound] |  | C (A visual change in the appearance of the coating liquid was confirmed; a trace amount of insoluble components were confirmed, or a GPC analysis of the coating liquid confirmed that the change in the composition of the coating liquid was 3% or less.) | 
15 | C=CC(=O)OCCCCCCOC1CCC(OC(=O)C2CCC(C(=O)Oc3ccc(OC(=O)C4CCC(C(=O)OC5CCC(OCCCCCCOC(=O)C=C)CC5)CC4)c4c3SC(=C(C#N)C(=O)OCC)S4)CC2)CC1 (centres unmarked) [r-3, reference compound] |  | C (A visual change in the appearance of the coating liquid was confirmed; a trace amount of insoluble components were confirmed, or a GPC analysis of the coating liquid confirmed that the change in the composition of the coating liquid was 3% or less.) | 
